We go through 31 compounds from ChEMBL document CHEMBL1125761, “Synthesis of water-soluble (aminoalkyl)camptothecin analogues: inhibition of topoisomerase I and antitumor activity” (J Med Chem, 1991).

Assay [1] is filed under the species Mus musculus. Briefly: Effect in increasing life span of mice bearing L1210 leukemia. It counts as functional.
The next assay has as its system L1210. Briefly: Inhibitory activity […] bearing L1210 leukemia. It counts as functional, cell-based, Mus musculus.
For assay [2], the species on record is Mus musculus. The assay can be described thus: Maximally tolerated dose in mice bearing L1210 leukemia. It counts as functional.
Assay [3] is filed under the species Mus musculus. Briefly: Compound tested for maximally tolerated dose in mice bearing L1210 leukemia; No toxicity was observed. It counts as functional.

For the compound `CC[C@@]1(O)C(=O)OCc2c1cc1n(c2=O)Cc2cc3c(CN(C)c4ccccc4)c(O)ccc3nc2-1`, the ILS (commonly how much longer treated animals lived than controls) in the assay listed under Mus musculus [1] is listed as 138%. In addition, 69 nM corresponded to half-maximal inhibition in the assay with L1210 (Mus musculus, L1210) (IC50). In addition, the MTD in the assay filed under Mus musculus [2] was 83 µM/kg.

In the assay listed under Mus musculus [1], `CC[C@@]1(O)C(=O)OCc2c1cc1n(c2=O)Cc2cc3c(C=O)c(O)ccc3nc2-1` returned an ILS greater than 75%. The IC50 (commonly the concentration that gives 50% inhibition) in the assay on L1210 (Mus musculus, L1210) is 260 nM. This compound also came in with an MTD in the assay listed under Mus musculus [3] of 102 µM/kg.

The compound `CCOCc1c(O)ccc2nc3c(cc12)Cn1c-3cc2c(c1=O)COC(=O)[C@]2(O)CC` gave an ILS in the assay listed under Mus musculus [1] of 125%. The same compound gave a half-inhibitory concentration (IC50) with L1210 (Mus musculus, L1210) of 48 nM. In the assay filed under Mus musculus [2], the MTD was determined as 56 µM/kg.

Compound `CC[C@@]1(O)C(=O)OCc2c1cc1n(c2=O)Cc2cc3c(CN(C)C)cccc3nc2-1` displayed an increase in lifespan (ILS) in the assay filed under Mus musculus [1] of 88%. Moreover, the IC50 in the assay on L1210 (Mus musculus, L1210) was 65 nM. This compound came in with an MTD in the assay listed under Mus musculus [2] of 29 µM/kg.

The compound `CC[C@@]1(O)C(=O)OCc2c1cc1n(c2=O)Cc2cc3c(CC#N)c(O)ccc3nc2-1` gave an ILS in the assay listed under Mus musculus [1] greater than 200%. The compound further displayed a concentration for half-maximal inhibition (IC50) in the assay with L1210 (Mus musculus, L1210) of 400 nM. This compound also showed an MTD in the assay listed under Mus musculus [2] of 28 µM/kg.

In the case of `CCC1(O)C(=O)OCc2c1cc1n(c2=O)Cc2c-1nc1ccccc1c2CCN(C)C(=O)OCc1ccccc1` (stereo not drawn), the ILS in the assay filed under Mus musculus [1] is given as 62%. The same compound had an IC50 in the assay on L1210 (Mus musculus, L1210) of 62 nM. In the assay listed under Mus musculus [2], this compound gave an MTD of 128 µM/kg.

In the assay listed under Mus musculus [1], `CC[C@@]1(O)C(=O)OCc2c1cc1n(c2=O)Cc2cc3c(COCCN(C)C)c(O)ccc3nc2-1` gave an ILS of 188%. Besides, half-maximal inhibition in the assay on L1210 (Mus musculus, L1210) (IC50) was put at 180 nM. The compound further came in with an MTD in the assay filed under Mus musculus [2] of 50 µM/kg.

As for `CCC1(O)C(=O)OCc2c1cc1n(c2=O)Cc2c-1nc1ccc(CC#N)cc1c2C` (stereo not drawn), the ILS in the assay filed under Mus musculus [1] turned out to be 106%. Inhibition in the assay with L1210 (Mus musculus, L1210) was half-maximal at 7.5 nM (IC50). In addition, the MTD in the assay listed under Mus musculus [2] stood at 6.4 µM/kg.

Turning to `CC[C@@]1(O)C(=O)OCc2c1cc1n(c2=O)Cc2cc3c(CCN)c(O)ccc3nc2-1`, in the assay listed under Mus musculus [1], the increase in lifespan (ILS) was 75%. Moreover, in the assay on L1210 (Mus musculus, L1210), the concentration for half-maximal inhibition (IC50) amounted to 360 nM. In the assay listed under Mus musculus [2], the MTD turned out to be 210 µM/kg.

With `CC[C@@]1(O)C(=O)OCc2c1cc1n(c2=O)Cc2cc3cc(C#N)ccc3nc2-1`, the ILS in the assay listed under Mus musculus [1] worked out at 100%. The compound also returned an IC50 with L1210 (Mus musculus, L1210) of 80 nM. For the same compound, the MTD in the assay filed under Mus musculus [2] stood at 7.8 µM/kg.

Turning to `CC[C@@]1(O)C(=O)OCc2c1cc1n(c2=O)Cc2cc3c(C)cccc3nc2-1`, the ILS in the assay filed under Mus musculus [1] is greater than 200%. In the assay on L1210 (Mus musculus, L1210), this compound showed a 50% inhibitory concentration (IC50) of 70 nM. This compound registered an MTD in the assay listed under Mus musculus [2] of 15 µM/kg.

In turn, `CC[C@@]1(O)C(=O)OCc2c1cc1n(c2=O)Cc2cc3c(C[N+](C)(C)C)c(O)ccc3nc2-1` displayed an increase in life span (ILS) in the assay listed under Mus musculus [1] greater than 200%. The same compound yielded a 50% inhibitory concentration (IC50) with L1210 (Mus musculus, L1210) of 150 nM. In the assay filed under Mus musculus [2], this compound showed an MTD of 68 µM/kg.

With `CC[C@@]1(O)C(=O)OCc2c1cc1n(c2=O)Cc2cc3cc(P(=O)(O)O)ccc3nc2-1`, the 50% inhibitory concentration (IC50) in the assay with L1210 (Mus musculus, L1210) was 26000 nM. In the assay listed under Mus musculus [3], this compound came in with an MTD of 155 µM/kg.

In turn, `CC[C@@]1(O)C(=O)OCc2c1cc1n(c2=O)Cc2cc3c(CNCCN(C)C)c(O)ccc3nc2-1` registered an ILS in the assay listed under Mus musculus [1] greater than 94%. This compound also returned a 50% inhibitory concentration (IC50) with L1210 (Mus musculus, L1210) of 49 nM. In the assay listed under Mus musculus [3], this compound gave an MTD of 78 µM/kg.

`CC[C@@]1(O)C(=O)OCc2c1cc1n(c2=O)Cc2cc3cc(CN)ccc3nc2-1`: in the assay listed under Mus musculus [1], the increase in lifespan (ILS) amounted to 112%. Also, in the assay with L1210 (Mus musculus, L1210), the IC50 worked out at 90 nM. Also, in the assay filed under Mus musculus [2], the MTD was found to be 160 µM/kg.

With `CC[C@@]1(O)C(=O)OCc2c1cc1n(c2=O)Cc2cc3c(CSCCN(C)C)c(O)ccc3nc2-1`, the increase in lifespan (ILS) in the assay filed under Mus musculus [1] is greater than 112%. Further, the IC50 in the assay with L1210 (Mus musculus, L1210) was determined as 12 nM. Also, in the assay listed under Mus musculus [3], the MTD was 76 µM/kg.

`CC[C@@]1(O)C(=O)OCc2c1cc1n(c2=O)Cc2cc3c(CN4CCOCC4)c(O)ccc3nc2-1` returned an increase in lifespan (ILS) in the assay listed under Mus musculus [1] of 83%. The IC50 in the assay on L1210 (Mus musculus, L1210) was determined as 370 nM. Also, the MTD in the assay listed under Mus musculus [2] worked out at 190 µM/kg.

In the case of `CCC1(O)C(=O)OCc2c1cc1n(c2=O)Cc2c-1nc1ccc(CCN)cc1c2C` (stereo not drawn), the ILS in the assay listed under Mus musculus [1] is recorded as greater than 33%. In the assay with L1210 (Mus musculus, L1210), half-maximal inhibition (IC50) required 29 nM. In addition, the MTD in the assay listed under Mus musculus [2] was 68 µM/kg.

On to `CC[C@@]1(O)C(=O)OCc2c1cc1n(c2=O)Cc2cc3c(CNC4CC4)c(O)ccc3nc2-1`, for which the increase in lifespan (ILS) in the assay filed under Mus musculus [1] was determined as 131%. In addition, the midpoint of inhibition in the assay with L1210 (Mus musculus, L1210), the IC50, lay at 130 nM. The compound further displayed an MTD in the assay listed under Mus musculus [2] of 48 µM/kg.

In the assay filed under Mus musculus [1], `CC[C@@]1(O)C(=O)OCc2c1cc1n(c2=O)Cc2cc3c(CN4CCOCC4)cccc3nc2-1` yielded an ILS of 144%. Besides, the 50% inhibitory concentration (IC50) in the assay on L1210 (Mus musculus, L1210) is 690 nM. In the assay listed under Mus musculus [2], this compound displayed an MTD of 29 µM/kg.

In the assay listed under Mus musculus [1], `CCC1(O)C(=O)OCc2c1cc1n(c2=O)Cc2c-1nc1ccccc1c2CCNC` (stereo not drawn) returned an ILS of 43%. For the same compound, inhibition in the assay on L1210 (Mus musculus, L1210) was half-maximal at 44 nM (IC50). Also, the MTD in the assay listed under Mus musculus [2] amounted to 122 µM/kg.

The compound `CC[C@@]1(O)C(=O)OCc2c1cc1n(c2=O)Cc2cc3c(CN4CCN(C)CC4)c(O)ccc3nc2-1` came in with an increase in life span (ILS) in the assay filed under Mus musculus [1] greater than 200%. The compound also returned a concentration for half-maximal inhibition (IC50) with L1210 (Mus musculus, L1210) of 72 nM. In addition, in the assay listed under Mus musculus [3], the MTD worked out at 74 µM/kg.

In turn, `CC[C@@]1(O)C(=O)OCc2c1cc1n(c2=O)Cc2cc3c(CNC4CCCCC4)c(O)ccc3nc2-1` yielded an increase in life span (ILS) in the assay listed under Mus musculus [1] greater than 200%. The same compound registered a concentration for half-maximal inhibition (IC50) in the assay on L1210 (Mus musculus, L1210) of 56 nM. In the assay filed under Mus musculus [2], this compound displayed an MTD of 47 µM/kg.

As for `CC[C@@]1(O)C(=O)OCc2c1cc1n(c2=O)Cc2cc3c(CN4CCC(N5CCCCC5)CC4)c(O)ccc3nc2-1`, in the assay filed under Mus musculus [1], the ILS is listed as greater than 44%. In the assay with L1210 (Mus musculus, L1210), this compound yielded a half-maximal inhibitory concentration (IC50) of 270 nM. The same compound came in with an MTD in the assay listed under Mus musculus [3] of 77 µM/kg.

`CC[C@@]1(O)C(=O)OCc2c1cc1n(c2=O)Cc2cc3c(CNCCO)c(O)ccc3nc2-1`: the ILS in the assay filed under Mus musculus [1] is listed as 62%. The IC50 in the assay with L1210 (Mus musculus, L1210) amounted to 250 nM. Further, in the assay filed under Mus musculus [2], the MTD was found to be 82 µM/kg.

As for `CCc1c2c(nc3ccc(O)cc13)-c1cc3c(c(=O)n1C2)COC(=O)[C@]3(O)CC` [7-ETHYL-10-HYDROXYCAMPTOTHECIN], in the assay listed under Mus musculus [1], the ILS turned out to be 144%. Besides, the MTD in the assay listed under Mus musculus [2] was determined as 86 µM/kg.

Turning to `CC[C@@]1(O)C(=O)OCc2c1cc1n(c2=O)Cc2cc3c(N)cccc3nc2-1` [9-AMINOCAMPTOTHECIN], the ILS in the assay filed under Mus musculus [1] is 94%. The compound also gave an IC50 in the assay on L1210 (Mus musculus, L1210) of 12 nM. Also, the MTD in the assay listed under Mus musculus [2] worked out at 8.9 µM/kg.

`CC[C@@]1(O)C(=O)OCc2c1cc1n(c2=O)Cc2cc3ccccc3nc2-1` [CAMPTOTHECIN] yielded an increase in life span (ILS) in the assay listed under Mus musculus [1] of 118%. For the same compound, the IC50 with L1210 (Mus musculus, L1210) turned out to be 23 nM. The MTD in the assay listed under Mus musculus [2] was 22 µM/kg.

For `CC[C@@]1(O)C(=O)OCc2c1cc1n(c2=O)Cc2cc3cc(O)ccc3nc2-1` [HYDROXYCAMPTOTHECIN], the ILS in the assay listed under Mus musculus [1] came to 78%. The same compound came in with a half-maximal inhibitory concentration (IC50) in the assay on L1210 (l1210) of 18 nM. In the assay listed under Mus musculus [2], this compound gave an MTD of 21 µM/kg.

In the case of `CCc1c2c(nc3ccc(OC(=O)N4CCC(N5CCCCC5)CC4)cc13)-c1cc3c(c(=O)n1C2)COC(=O)[C@]3(O)CC` [IRINOTECAN], the MTD in the assay listed under Mus musculus [2] was found to be 245 µM/kg.

Turning to `CC[C@@]1(O)C(=O)OCc2c1cc1n(c2=O)Cc2cc3c(CN(C)C)c(O)ccc3nc2-1` [TOPOTECAN], the ILS in the assay listed under Mus musculus [1] amounted to 173%. Moreover, in the assay listed under Mus musculus [2], the MTD turned out to be 30 µM/kg.
